# Target: T1, human soluble epoxide hydrolase (hsEH) (Homo sapiens, UniProt P34913)
# T1 construct: gene EPHX2; C-terminal domain (CTD)
# T1 sequence (P34913 230-555 limits assumed): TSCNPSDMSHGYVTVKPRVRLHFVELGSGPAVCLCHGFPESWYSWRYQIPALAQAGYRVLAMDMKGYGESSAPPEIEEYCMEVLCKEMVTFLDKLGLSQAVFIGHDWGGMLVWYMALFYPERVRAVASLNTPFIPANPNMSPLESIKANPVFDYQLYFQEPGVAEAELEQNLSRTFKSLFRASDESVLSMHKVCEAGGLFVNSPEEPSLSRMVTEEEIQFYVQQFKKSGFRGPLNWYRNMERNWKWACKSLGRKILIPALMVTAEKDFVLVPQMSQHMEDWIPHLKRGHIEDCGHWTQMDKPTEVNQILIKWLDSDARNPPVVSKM
# Experiment: single-injection ITC enzyme kinetics (KM)
# Type: biochemical
row,SMILES,Km
1,CCCCC/C=C\C/C=C\CC1OC1C/C=C\CCCC(=O)O (stereo not shown) [8(9)EET],23.1 ± 2.39 µM
2,CC/C=C\C/C=C\C/C=C\CC1OC1C/C=C\CCCC(=O)O (stereo not shown) [8(9)EpETE],9.74 ± 0.13 µM
3,CCCCCC1OC1C/C=C\C/C=C\C/C=C\CCCC(=O)O (stereo not shown) [14(15)EET],12.9 ± 1.94 µM
4,CCC1OC1C/C=C\C/C=C\C/C=C\C/C=C\C/C=C\CCC(=O)O (stereo not shown) [19(20)EpDPE],26.6 ± 1.21 µM
5,CCC1OC1C/C=C\C/C=C\C/C=C\C/C=C\CCCC(=O)O (stereo not shown) [17(18)EpETE],26.4 ± 4.05 µM
6,CCCCC/C=C\CC1OC1C/C=C\C/C=C\CCCC(=O)O (stereo not shown) [11(12)EET],1.74 ± 0.2 µM

# Target: T1, human soluble epoxide hydrolase (hsEH)
# Experiment: single-injection ITC enzyme kinetics (KM; saturation not reached)
# Type: biochemical
row,SMILES,Km
1,CCCCC/C=C\C/C=C\C/C=C\CC1OC1CCCC(=O)O (stereo not shown) [5(6)EET],46.6 ± 11 µM
